Holding throughout (type): cell-based
In assay [1] the test system is Enterococcus faecalis ATCC 29212. As to the method: (§1) The biofilms of bacteria associated with the biofilm-related infections were cultured on 96-well flat bottom PS and on CL placed in 24-well plates. The bacteria at initial inoculums of 5 × 10^8 CFU/mL in MHB II were added to the plates and incubated at 37 °C under aerobic conditions. After 24 h of incubation, all cultures were rinsed three times with PBS and fresh medium was added. Subsequently, the obtained biofilm cultures were exposed to solutions of antimicrobials applied at graded concentrations ranging from 1 to 512 μg/mL for 24 h at 37 °C. The anti-biofilm activity of antimicrobials was visualized by resazurin (final concentration per sample = 0.005%) in the same way as in the MBFIC assay. All experiments were performed in triplicate and included growth controls (positive control: bacterial suspension without antimicrobials) and sterility controls (negative controls: sterile MBH II medium).

In assay [2] the test system is Escherichia coli ATCC 25922. As for the experimental part: as §1
Assay [3] deals with Proteus mirabilis PCM 543. As to the method: as §1
The test system of assay [4] is Pseudomonas aeruginosa ATCC 9027. As to the method:
as §1

In assay [5] the test system is Staphylococcus aureus ATCC 25923. As to the method:
as §1

Assay [6] deals with Staphylococcus epidermidis ATCC 14990. As for the experimental part: as §1
The subject of assay [7] is gram-positive strains. As to the kind of experiment: MIC, broth microdilution, range over strains. As to conditions: range over the gram-positive strains, liquid culture. As for the experimental part:
The MICs of synthetic lipopeptides and conventional antimicrobials were determined using the broth microdilution method according to the Clinical and Laboratory Standard Institute (CLSI) guidelines on reference strains. […] The PS were incubated under aerobic conditions at 37 °C for 18 h. The MIC (μg/mL) was assumed as the lowest concentration of the compound that inhibited the growth of the microorganisms. All experiments were performed in triplicate and included the growth and sterility controls.
(In general: Broth dilution looks for growth in wells or tubes with falling amounts of substance.)

Setting [8] is: 24 h biofilm on 96-well flat bottom PS, 5 × 10^8 CFU/mL in MHB II, exposure 1–512 μg/mL for 24 h at 37 °C, resazurin, triplicate.
Where [9] appears, read: 24 h biofilm on contact lenses (CL) in 24-well plates, 5 × 10^8 CFU/mL in MHB II, exposure 1–512 μg/mL for 24 h at 37 °C, resazurin, triplicate.

Where two headings read alike, the source gives them in different places. Where a SMILES comes first, the peptide text is derived from it. Bridges are numbered along the chain shown (N, C = ends). Roman numbers before positions name the chains, in order. The star is where a group is joined. Palmitoyl = CCCCCCCCCCCCCCCC(=O)*; Myristoyl = CCCCCCCCCCCCCC(=O)*; Lauroyl = CCCCCCCCCCCC(=O)*

In the case of `CCCCCCCCCCCCCC(=O)N[C@@H](CCCCN)C(=O)N[C@@H](CCCNC(=N)N)C(N)=O` [Lipopeptide 4, C14-KR-NH2] (Myristoyl-Lys-Arg-NH2), the “MBEC E. faecalis, CL” value in assay [1] (ATCC 29212, 24 h) is 256 µg/mL. Also, the “MBEC E. coli, CL” value in assay [2] (ATCC 25922, 24 h) worked out at 256 µg/mL. Also, the “MBEC P. mirabilis, CL” value in assay [3] (PCM 543, 24 h) is on record as >512/>512 μg/mL. The “MBEC P. aeruginosa, CL” value in assay [4] (ATCC 9027, 24 h) is >512/>512 μg/mL. Moreover, the “MBEC S. aureus, CL” value in assay [5] (ATCC 25923, 24 h) is 512 µg/mL. For the same compound, the “MBEC S. epidermidis, CL” value in assay [6] (ATCC 14990, 24 h) is 32 µg/mL.

Regarding `CCCCCCCCCCCCCCCC(=O)N[C@@H](CCCCN)C(=O)N[C@@H](CCCCN)C(=O)N[C@@H](CCCCN)C(N)=O` [Lipopeptide 7, C16-KKK-NH2], the “MBEC E. faecalis, CL” value in assay [1] (ATCC 29212, 24 h) came out at 16 µg/mL. In assay [2] (ATCC 25922, 24 h), the “MBEC E. coli, CL” value worked out at 128 µg/mL and the “concentrations eliminating the EC biofilm (MBEC range)” value lay in the range of 64 to 128 µg/mL. In addition, in assay [3] (PCM 543, 24 h), the “MBEC P. mirabilis, CL” value is recorded as 512/>512 μg/mL. Also, the “MBEC P. aeruginosa, CL” value in assay [4] (ATCC 9027, 24 h) was 512/>512 μg/mL. Further, the “MBEC S. aureus, CL” value in assay [5] (ATCC 25923, 24 h) was 256 µg/mL. The “MBEC S. epidermidis, CL” value in assay [6] (ATCC 14990, 24 h) was 64 µg/mL.

Consider `CCCCCCCCCCCCCC(=O)N[C@@H](CCCCN)C(=O)N[C@@H](CCCCN)C(=O)N[C@@H](CSSC[C@H](NC(=O)[C@H](CCCCN)NC(=O)[C@H](CCCCN)NC(=O)CCCCCCCCCCCCC)C(N)=O)C(N)=O` [Lipopeptide 3, C14-KKC-NH2] (I: Myristoyl-Lys-Lys-Cys-NH2 / II: Myristoyl-Lys-Lys-Cys-NH2; disulfide I:3-II:3), for which the “MBEC E. faecalis, CL” value in assay [1] (ATCC 29212, 24 h) is 256/256 μg/mL. The “MBEC E. coli, CL” value in assay [2] (ATCC 25922, 24 h) is listed as 512/512 μg/mL. The “MBEC P. mirabilis, CL” value in assay [3] (PCM 543, 24 h) was 512/>512 μg/mL. Moreover, the “MBEC P. aeruginosa, CL” value in assay [4] (ATCC 9027, 24 h) was more than 512 µg/mL. In addition, in assay [5] (ATCC 25923, 24 h), the “MBEC S. aureus, CL” value was 128/128 μg/mL. Also, the “MBEC S. epidermidis, CL” value in assay [6] (ATCC 14990, 24 h) was 512 µg/mL.

In the case of `CCCCCCCCCCCC(=O)N[C@@H](CCCCN)C(=O)N[C@@H](CCCCN)C(=O)N[C@@H](CSSC[C@H](NC(=O)[C@H](CCCCN)NC(=O)[C@H](CCCCN)NC(=O)CCCCCCCCCCC)C(N)=O)C(N)=O` [Lipopeptide 1, C12-KKC-NH2] (I: Lauroyl-Lys-Lys-Cys-NH2 / II: Lauroyl-Lys-Lys-Cys-NH2; disulfide I:3-II:3), the “MBEC E. faecalis, CL” value in assay [1] (ATCC 29212, 24 h) was 128 µg/mL. In addition, the “MBEC E. coli, CL” value in assay [2] (ATCC 25922, 24 h) is given as 256/256 μg/mL. Moreover, the “MBEC P. mirabilis, CL” value in assay [3] (PCM 543, 24 h) is given as >512/>512 μg/mL. For the same compound, the “MBEC P. aeruginosa, CL” value in assay [4] (ATCC 9027, 24 h) turned out to be 256 µg/mL. In assay [5] (ATCC 25923, 24 h), the “MBEC S. aureus, CL” value was found to be 256 µg/mL. For the same compound, the “MBEC S. epidermidis, CL” value in assay [6] (ATCC 14990, 24 h) amounted to 128 µg/mL. Moreover, in assay [7], the “concentrations inhibiting growth of gram-positive strains (MIC range)” value fell in the range of 2 to 8 µg/mL.

Consider `CCCCCCCCCCCCCCCC(=O)N[C@@H](CCCCN)C(=O)N[C@@H](CCCNC(=N)N)C(N)=O` [Lipopeptide 8, C16-KR-NH2] (Palmitoyl-Lys-Arg-NH2), for which, in assay [1] (ATCC 29212, 24 h), the “MBEC E. faecalis, CL” value is 64/64 μg/mL. For the same compound, in assay [2] (ATCC 25922, 24 h), the “MBEC E. coli, CL” value amounted to 128 µg/mL. For the same compound, the “MBEC P. mirabilis, CL” value in assay [3] (PCM 543, 24 h) is more than 512 µg/mL. For the same compound, the “MBEC P. aeruginosa, CL” value in assay [4] (ATCC 9027, 24 h) stood at 32 µg/mL. Moreover, in assay [5] (ATCC 25923, 24 h), the “MBEC S. aureus, CL” value came out at 128 µg/mL. In assay [6] (ATCC 14990, 24 h), the “MBEC S. epidermidis, CL” value was 32 µg/mL.

For (C10)2-KKKK-NH2 [Lipopeptide 9], the “MBEC E. faecalis, PS” value in assay [1] (setting [8]) turned out to be 32 µg/mL. Besides, in assay [1] (setting [9]), the “MBEC E. faecalis, CL” value was determined as 128 µg/mL. For the same compound, the “MBEC E. coli, PS” value in assay [2] (setting [8]) was found to be 64 µg/mL. Further, the “MBEC E. coli, CL” value in assay [2] (setting [9]) was found to be 128 µg/mL. The “concentrations eliminating the EC biofilm (MBEC range)” value in assay [2] (range over PS and CL) was in the range of 64 to 128 µg/mL. Moreover, the “MBEC P. mirabilis, PS” value in assay [3] (setting [8]) is listed as >512/>512 μg/mL. In addition, the “MBEC P. mirabilis, CL” value in assay [3] (setting [9]) was >512/>512 μg/mL. Further, the “MBEC P. aeruginosa, PS” value in assay [4] (setting [8]) worked out at 512 µg/mL. Besides, in assay [4] (setting [9]), the “MBEC P. aeruginosa, CL” value is 256 µg/mL. In addition, the “MBEC S. aureus, PS” value in assay [5] (setting [8]) is 64 µg/mL. The “MBEC S. aureus, CL” value in assay [5] (setting [9]) is 128 µg/mL. In addition, the “MBEC S. epidermidis, PS” value in assay [6] (setting [8]) is 16 µg/mL. Moreover, the “MBEC S. epidermidis, CL” value in assay [6] (setting [9]) is 64 µg/mL.

`CCCCCCCCCCCCCCCC(=O)N[C@@H](CCCCN)C(=O)NCC(=O)N[C@@H](CCCCN)C(N)=O` [Lipopeptide 5, C16-KGK-NH2] (Palmitoyl-Lys-Gly-Lys-NH2): the “MBEC E. faecalis, CL” value in assay [1] (ATCC 29212, 24 h) came to 32 µg/mL. For the same compound, in assay [2] (ATCC 25922, 24 h), the “MBEC E. coli, CL” value came to 64 µg/mL and the “concentrations eliminating the EC biofilm (MBEC range)” value was 64 to 128 µg/mL. The “MBEC P. mirabilis, CL” value in assay [3] (PCM 543, 24 h) is >512/>512 μg/mL. Moreover, the “MBEC P. aeruginosa, CL” value in assay [4] (ATCC 9027, 24 h) turned out to be 256 µg/mL. Besides, the “MBEC S. aureus, CL” value in assay [5] (ATCC 25923, 24 h) is 512 µg/mL. Besides, the “MBEC S. epidermidis, CL” value in assay [6] (ATCC 14990, 24 h) was 128 µg/mL.
